US12612424B2, “HPK1 inhibitors and uses thereof” (Regor Pharmaceuticals, Inc., priority 2019, dated 2026)
pEC50: −log10 of the molar value.

Test system: Human Pan T Cell (IL-2 release)
Assay: IL2 released by human pan T cell upon anti-CD3/anti-CD28 stimulation (ELISA)
Type: cell-based
Conditions: human pan T cells; for EC (2-fold response) / maximal fold induction / pEC50: Homo sapiens, T-cell; for EC (2-fold response) / maximal fold induction: 48 h; for maximal fold induction: response of IL-2 over DMSO control, anti-CD3/anti-CD28, 48 hours, ELISA, read-out: IL-2 Max Fold Response; for pEC50: IL-2 response, calculated with GraphPad Prism
Outline: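 Primary human pan-T cells, negatively isolated from PBMC, plated at 100,000 cells/well and stimulated with immobilized anti-CD3 plus soluble anti-CD28 in presence of test compound at varying concentrations. After 2 days, secreted IL-2 in supernatant quantified by ELISA.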

[1] = concentration of compound that gives 200% IL-2 response (2 folds) over DMSO control

pEC50	SMILES	EC (2-fold response) [1] [µM]	maximal fold induction	EC2x (nM) [1]
6.30 to 7.00	COc1cc2c(cc1Nc1ncc(Cl)c(N3CCc4cc(F)ccc43)n1)CN(C)CC2 [Example 20, N-(5-chloro-4-(5-fluoroindolin-1-yl)pyrimidin-2-yl)-6-methoxy-2-methyl-1,2,3,4-tetrahydroisoquinolin-7-amine]	0.1 to 0.5	> 2	–
–	COc1cc2c(cc1Nc1ncc(Cl)c(-n3cc(P(C)(C)=O)c4ccccc43)n1)CN(C)CC2 [Example 1, (1-(5-Chloro-2-((6-methoxy-2-methyl-1,2,3,4-tetrahydroisoquinolin-7-yl)amino)pyrimidin-4-yl)-1H-indol-3-yl)dimethylphosphine oxide]	–	< 2	–
6.30 to 7.00	COc1nc2c(cc1Nc1ncc(Cl)c(N3CCc4ccccc43)n1)CN(C)CC2 [Example 19, N-(5-chloro-4-(indolin-1-yl)pyrimidin-2-yl)-2-methoxy-6-methyl-5,6,7,8-tetrahydro-1,6-naphthyridin-3-amine]	0.1 to 0.5	> 2	–
6.00 to 6.30	COc1cc2c(cc1Nc1ncc(Cl)c(N3CC(C)(C)c4ccccc43)n1)CN(C)CC2 [Example 25, N-(5-Chloro-4-(3,3-dimethylindolin-1-yl)pyrimidin-2-yl)-6-methoxy-2-methyl-1,2,3,4-tetrahydroisoquinolin-7-amine]	0.1 to 0.5	> 2	–
6.00 to 6.30	COc1cc2c(cc1Nc1ncc(Cl)c(N3CCc4ccccc43)n1)CN(C(C)C)CC2 [Example 22, N-(5-chloro-4-(indolin-1-yl)pyrimidin-2-yl)-2-isopropyl-6-methoxy-1,2,3,4-tetrahydroisoquinolin-7-amine]	0.1 to 0.5	> 2	–
6.30 to 7.00	COc1cc2c(cc1Nc1ncc(Cl)c(N3CC(C(=O)O)c4ccccc43)n1)CN(C)CC2 (stereo not drawn) [Example 32, 1-(5-Chloro-2-((6-methoxy-2-methyl-1,2,3,4-tetrahydroisoquinolin-7-yl)amino)pyrimidin-4-yl)indoline-3-carboxylic acid]	0.1 to 0.5	> 2	–
6.00 to 6.30	COc1cc2c(cc1Nc1ncc(Cl)c(-n3cc(C(=O)O)c4ccccc43)n1)CN(C)CC2 [Example 35]	–	> 2	+ (“+”, for greater than 1 μM)
6.30 to 7.00	COc1cc2c(cc1Nc1ncc(Cl)c(N3CCc4ccccc43)n1)CNCC2 [Example 23, N-(5-chloro-4-(indolin-1-yl)pyrimidin-2-yl)-6-methoxy-1,2,3,4-tetrahydroisoquinolin-7-amine]	–	< 2	–
6.00 to 6.30	COc1cc2c(cc1Nc1ncc(Cl)c(-n3ncc4ccccc43)n1)CN(C)CC2 [Example 24, N-(5-Chloro-4-(1H-indazol-1-yl)pyrimidin-2-yl)-6-methoxy-2-methyl-1,2,3,4-tetrahydroisoquinolin-7-amine]	–	< 2	–
–	COc1cc2c(cc1Nc1ncc(Cl)c(N3CC(C(N)=O)c4ccccc43)n1)CN(C)CC2 (stereo not drawn) [Example 33, 1-(5-Chloro-2-((6-methoxy-2-methyl-1,2,3,4-tetrahydroisoquinolin-7-yl)amino)pyrimidin-4-yl)indoline-3-carboxamide]	–	< 2	–
6.30 to 7.00	COc1cc2c(cc1Nc1ncc3ccn(-c4ccccn4)c3n1)CN(C)CC2 [Example 37, 6-Methoxy-2-methyl-N-(7-(pyridin-2-yl)-7H-pyrrolo[2,3-d]pyrimidin-2-yl)-1,2,3,4-tetrahydroisoquinolin-7-amine]	–	< 2	–
6.00 to 6.30	COc1nc2c(cc1Nc1ncc(Cl)c(N3CCc4ncccc43)n1)CN(C)CC2 [Example 29, N-(5-Chloro-4-(2,3-dihydro-1H-pyrrolo[3,2-b]pyridin-1-yl)pyrimidin-2-yl)-2-methoxy-6-methyl-5,6,7,8-tetrahydro-1,6-naphthyridin-3-amine]	–	< 2	–
–	COc1cc2c(cc1Nc1ncc(Cl)c(-n3cc(C(N)=O)c4ccccc43)n1)CN(C)CC2 [Example 34]	–	< 2	–
–	COc1cc2c(cc1Nc1ncc3ccn(-c4ccccc4)c3n1)CN(C)CC2 [Example 36, 6-methoxy-2-methyl-N-(7-phenyl-7H-pyrrolo[2,3-d]pyrimidin-2-yl)-1,2,3,4-tetrahydroisoquinolin-7-amine]	–	< 2	–
6.30 to 7.00	COc1cc2c(cc1Nc1ncc(Cl)c(N3CCc4ccc(F)cc43)n1)CN(C)CC2 [Example 21, N-(5-chloro-4-(6-fluoroindolin-1-yl)pyrimidin-2-yl)-6-methoxy-2-methyl-1,2,3,4-tetrahydroisoquinolin-7-amine]	0.1 to 0.5	> 2	–
